From the supplement of paper PMC10307832

What was measured:
Test in all cases: relative viability (nuclei count vs DMSO), 5 days (fraction); higher = more cells survive
[1] = compound: COc1ccc(-c2ccc3c(N4CCOC[C@@H]4C)nc(N4CCOC[C@@H]4C)nc3n2)cc1CO [AZD8055] + CCNC(=O)c1noc(-c2cc(C(C)C)c(O)cc2O)c1-c1ccc(CN2CCOCC2)cc1 [Luminespib] (partner 0.01 µM)
Outline: (§1)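 Lung cancer cell lines, seeded in 1536-well plates, were treated the following day by pin tool with a single drug or with five library-drug doses (not always all listed) in √10 steps on top of a fixed anchor-drug dose. Cells were fixed and nuclei stained in one step after 5 days, and nuclei were counted. Relative viability is the nuclei count for treated wells divided by that for vehicle wells, reported as medians of duplicate plates.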

[2] = compound: COc1ccc(-c2ccc3c(N4CCOC[C@@H]4C)nc(N4CCOC[C@@H]4C)nc3n2)cc1CO [AZD8055] + CS(=O)(=O)CCNCc1ccc(-c2ccc3ncnc(Nc4ccc(OCc5cccc(F)c5)c(Cl)c4)c3c2)o1 [Lapatinib] (partner 2 µM)
Outline: as §1

[3] = compound: COc1ccc(-c2ccc3c(N4CCOC[C@@H]4C)nc(N4CCOC[C@@H]4C)nc3n2)cc1CO [AZD8055] + Nc1ncn([C@H]2C[C@H](O)[C@@H](CO)O2)c(=O)n1 [Decitabine] (partner 2 µM)
Outline: as §1

[4] = compound: COc1ccc(-c2ccc3c(N4CCOC[C@@H]4C)nc(N4CCOC[C@@H]4C)nc3n2)cc1CO [AZD8055] + O=C(c1cc(Cc2n[nH]c(=O)c3ccccc23)ccc1F)N1CCN(C(=O)C2CC2)CC1 [Olaparib] (partner 8 µM)
Outline: as §1

Cell Line | relative viability ([1]; first compound 0.01 µM) | relative viability ([1]; first compound 0.03162 µM) | relative viability ([1]; first compound 0.1 µM) | relative viability ([1]; first compound 0.3162 µM) | relative viability ([1]; first compound 1 µM) | relative viability ([2]; first compound 0.01 µM) | relative viability ([2]; first compound 0.03162 µM) | relative viability ([2]; first compound 0.1 µM) | relative viability ([2]; first compound 0.3162 µM) | relative viability ([2]; first compound 1 µM) | relative viability ([3]; first compound 0.01 µM) | relative viability ([3]; first compound 0.03162 µM) | relative viability ([3]; first compound 0.1 µM) | relative viability ([3]; first compound 0.3162 µM) | relative viability ([3]; first compound 1 µM) | relative viability ([4]; first compound 0.01 µM) | relative viability ([4]; first compound 0.03162 µM) | relative viability ([4]; first compound 0.1 µM) | relative viability ([4]; first compound 0.3162 µM) | relative viability ([4]; first compound 1 µM)
NCI-H2087 | 0.171 | 0.163 | 0.138 | 0.124 | 0.141 | 1.01 | 0.932 | 0.826 | 0.581 | 0.435 | 0.28 | 0.182 | 0.236 | 0.153 | 0.113 | 0.625 | 0.519 | 0.451 | 0.263 | 0.217
LU99A | 0.234 | 0.189 | 0.185 | 0.191 | 0.188 | 0.824 | 0.458 | 0.329 | 0.218 | 0.228 | 1 | 0.666 | 0.417 | 0.222 | 0.188 | 0.293 | 0.226 | 0.161 | 0.183 | 0.168
NCI-H1355 | 0.601 | 0.369 | 0.234 | 0.238 | 0.206 | 0.866 | 0.78 | 0.703 | 0.257 | 0.274 | 0.395 | 0.335 | 0.321 | 0.248 | 0.231 | 0.694 | 0.622 | 0.553 | 0.269 | 0.266
NCI-H520 | 0.239 | 0.228 | 0.171 | 0.183 | 0.16 | 0.716 | 0.344 | 0.265 | 0.142 | 0.167 | 0.486 | 0.242 | 0.229 | 0.176 | 0.165 | 0.247 | 0.205 | 0.132 | 0.137 | 0.132
NCI-H661 | 0.971 | 0.906 | 0.886 | 0.424 | 0.367 | 0.434 | 0.43 | 0.414 | 0.307 | 0.256 | 0.502 | 0.482 | 0.449 | 0.359 | 0.331 | 0.785 | 0.802 | 0.691 | 0.447 | 0.378
NCI-H650 | 0.998 | 0.768 | 0.691 | 0.436 | 0.295 | 0.838 | 0.73 | 0.58 | 0.341 | 0.319 | 0.35 | 0.278 | 0.333 | 0.29 | 0.275 | 0.484 | 0.38 | 0.357 | 0.217 | 0.175
NCI-H647 | 0.15 | 0.126 | 0.125 | 0.0957 | 0.121 | 1.15 | 0.565 | 0.478 | 0.192 | 0.207 | 0.35 | 0.271 | 0.198 | 0.195 | 0.126 | 0.7 | 0.416 | 0.301 | 0.227 | 0.169
201T | 0.979 | 1.01 | 0.814 | 0.421 | 0.42 | 1.01 | 1.04 | 0.986 | 0.788 | 0.7 | 0.863 | 0.711 | 0.692 | 0.579 | 0.527 | 0.878 | 0.854 | 0.813 | 0.673 | 0.456
NCI-H838 | 0.317 | 0.223 | 0.234 | 0.156 | 0.196 | 1.04 | 0.656 | 0.352 | 0.237 | 0.336 | 0.513 | 0.343 | 0.305 | 0.278 | 0.296 | 0.687 | 0.597 | 0.351 | 0.259 | 0.29
SW 1573 | 0.121 | 0.256 | 0.167 | 0.103 | 0.187 | 1.25 | 0.829 | 1.04 | 0.519 | 0.27 | 0.496 | 0.316 | 0.38 | 0.195 | 0.189 | 0.555 | 0.417 | 0.325 | 0.17 | 0.16
PC-14 | 0.162 | 0.17 | 0.206 | 0.187 | 0.212 | 0.315 | 0.204 | 0.244 | 0.16 | 0.148 | 0.288 | 0.227 | 0.238 | 0.186 | 0.159 | 0.461 | 0.401 | 0.321 | 0.163 | 0.142
LK-2 | 0.154 | 0.186 | 0.16 | 0.173 | 0.144 | 0.801 | 0.55 | 0.47 | 0.198 | 0.17 | 0.273 | 0.19 | 0.156 | 0.146 | 0.144 | 0.769 | 0.436 | 0.379 | 0.144 | 0.171
HCC-78 | – | – | – | – | – | 0.934 | 0.547 | 0.406 | 0.225 | 0.217 | 0.729 | 0.437 | 0.564 | 0.381 | 0.412 | 0.758 | 0.632 | 0.54 | 0.388 | 0.383
HCC-366 | – | – | – | – | – | 1.12 | 0.93 | 0.864 | 0.27 | 0.2 | 0.392 | 0.233 | 0.281 | 0.144 | 0.14 | 0.426 | 0.275 | 0.273 | 0.143 | 0.136
LCLC-103H | 0.951 | 0.762 | 0.793 | 0.414 | 0.271 | – | – | – | – | – | 0.767 | 0.616 | 0.532 | 0.417 | 0.374 | 0.824 | 0.634 | 0.631 | 0.47 | 0.396
NCI-H1563 | 0.594 | 0.536 | 0.541 | 0.496 | 0.49 | 0.881 | 0.836 | 0.756 | 0.644 | 0.751 | – | – | – | – | – | – | – | – | – | –
EBC-1 | – | – | – | – | – | 0.214 | 0.213 | 0.219 | 0.231 | 0.199 | – | – | – | – | – | 0.764 | 0.51 | 0.331 | 0.227 | 0.172
Calu-6 | – | – | – | – | – | 1.22 | 0.926 | 0.816 | 0.718 | 0.485 | – | – | – | – | – | 0.716 | 0.616 | 0.505 | 0.478 | 0.362
